Experimental data as given in patent US11634436B2, “Pyridine lactam compounds and methods of use thereof” (Genentech, Inc., priority 2018, dated 2023).

molecular target: T1, human RIP1 kinase domain (2-375) (Homo sapiens, UniProt Q13546); test: RIP1 kinase inhibition biochemical assay (Transcreener ADP, fluorescence polarization); conditions: tight-binding apparent inhibition constant (Ki app, Morrison equation); 50 nM enzyme, 50 uM ATP, 2 hours incubation
T1 construct: Purified human RIP1 kinase domain (2-375) (50 nM) derived from a baculovirus-infected insect cell expression system; made in house; host or cells: baculovirus-infected insect cells
T1 sequence (Q13546 2-375): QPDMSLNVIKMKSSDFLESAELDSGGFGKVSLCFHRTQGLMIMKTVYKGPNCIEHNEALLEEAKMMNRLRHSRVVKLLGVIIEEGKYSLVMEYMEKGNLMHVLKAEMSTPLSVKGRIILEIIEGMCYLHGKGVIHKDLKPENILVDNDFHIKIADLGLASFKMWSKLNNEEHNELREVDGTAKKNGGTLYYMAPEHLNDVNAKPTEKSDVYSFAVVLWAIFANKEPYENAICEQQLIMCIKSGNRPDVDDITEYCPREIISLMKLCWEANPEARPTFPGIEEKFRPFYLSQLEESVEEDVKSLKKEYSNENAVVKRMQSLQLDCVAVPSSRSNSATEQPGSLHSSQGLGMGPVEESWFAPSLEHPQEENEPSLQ
Experimental: RIP1 Kinase Inhibition Assays (Biochemical Assay)
The compounds of the present invention were tested for their capacity to inhibit RIP1K activity as described below.
Enzyme assay: The ability of the receptor interacting protein kinase (RIPK1) to catalyze the hydrolysis of adenosine-5′-triphosphate (ATP) is monitored using the Transcreener ADP (adenosine-5′-diphosphate) assay (BellBrook Labs). Purified human RIP1 kinase domain (2-375) (50 nM) derived from a baculovirus-infected insect cell expression system is incubated with test compounds for 2 hours in 50 mM Hepes buffer (pH 7.5) containing 30 mM MgCl2, 1 mM dithiothreitol, 50 uM ATP, 0.002% Brij-35, and 0.5% dimethyl sulfoxide (DMSO). Reactions are quenched by the addition of 1× Bell Brooks Stop buffer B (20 mM Hepes (ph7.5), 40 mM ethylenediaminetetraacetic acid and 0.02% Brij-35) containing an additional 12 mM EDTA and 55 ug/mL ADP2 antibody and 4 nM ADP-AlexaFluor® 633 tracer. The tracer bound to the antibody is displaced by the ADP generated during the RIP1K reaction, which causes a decrease in fluorescence polarization that is measured by laser excitation at 633 nm with a FP microplate reader M1000. Fractional activity was plotted against test article concentration. Using Genedata Screener software (Genedata; Base1, Switzerland), the data were fit to the tight-binding apparent inhibition constant (Ki^app) Morrison equation [Williams, J. W. and Morrison, J. F. (1979) The kinetics of reversible tight-binding inhibition. Methods Enzymol 63: 437-67]. The following equation was used to calculate fractional activity and Ki^app:
[formula] where [E]T and [I]T are the total concentrations of active enzyme and test article, respectively.
Exemplary compounds of the present invention are provided in Table 1 along with their physiochemical characterization and in vitro RIP1 kinase inhibitory activity data. “Method” in the first column of each table refers to the synthetic method(s) used to prepare each compound as shown in the Examples above. In certain examples, chiral column retention times (min) are provided for certain stereoisomers. Unless otherwise specified, the stereochemistry shown in each structure represents relative configuration of a single stereoisomer, and absolute configuration (i.e., “R” and/or “S”) is arbitrarily assigned. In some embodiments, where the Method is described to include the separation of stereoisomers, a single stereoisomer of a compound of Table 1 is provided.

Structure (SMILES) | Ki [nM]
CN1C(=O)[C@@H](NC(=O)c2cc3n(n2)[C@H](c2ccccc2)C[C@@H]3F)COc2cccnc21 (single isomer, unassigned) [Example 1] | 5.2
CN1C(=O)[C@@H](NC(=O)c2cc3n(n2)CCO[C@@H]3c2ccccc2F)COc2cccnc21 (single isomer, unassigned) [Example 4] | 950
CN1C(=O)[C@@H](NC(=O)c2cc3n(n2)CCO[C@H]3c2ccccc2)COc2cccnc21 (single isomer, unassigned) [Example 5] | 19
CN1C(=O)[C@@H](NC(=O)c2cc3n(n2)[C@@H](c2ccccc2)C[C@H]3F)COc2ccccc21 (single isomer, unassigned) [Example 10] | 5400
[2H]C([2H])([2H])N1C(=O)[C@@H](NC(=O)c2cc3n(n2)CCO[C@H]3c2ccccc2)COc2cccnc21 [Example 7, (4S)-4-phenyl-N-[(3S)-4-oxo-5-(trideuteriomethyl)-2,3-dihydropyrido[3,2-b][1,4]oxazepin-3-yl]-6,7-dihydro-4H-pyrazolo[5,1-c][1,4]oxazine-2-carboxamide] | 28
CCC(F)(F)n1ncc2cnc(C(=O)N[C@H]3COc4cccnc4N(C)C3=O)nc21 [Example 8, 1-(1,1-difluoropropyl)-N-[(3S)-5-methyl-4-oxo-2,3-dihydropyrido[3,2-b][1,4]oxazepin-3-yl]pyrazolo [3,4-d]pyrimidine-6-carboxamide] | 18
CN1C(=O)[C@@H](NC(=O)c2ncc3cnn(C4CCCC4)c3n2)COc2cccnc21 [Example 9, 1-cyclopentyl-N-[(3S)-5-methyl-4-oxo-2,3-dihydropyrido[3,2-b][1,4]oxazepin-3-yl]pyrazolo [3,4-d]pyrimidine-6-carboxamide] | 11
CCC(F)(F)n1ncc2cnc(C(=O)N[C@H]3COc4cccnc4N(C)C3=O)cc21 [Example 12, 1-(1,1-difluoropropyl)-N-[(3S)-5-methyl-4-oxo-2,3-dihydropyrido[3,2-b][1,4]oxazepin-3-yl]pyrazolo [4,3-c]pyridine-6-carboxamide] | 5

Further compounds by falling Ki, results first:

Ki [nM] | Structure (SMILES)
24 | CN1C(=O)[C@@H](NC(=O)c2cc3n(n2)CCO[C@H]3c2ccccc2F)COc2cccnc21 (single isomer, unassigned) [Example 3]
14 | CC(C)n1ncc2cnc(C(=O)N[C@H]3COc4cccnc4N(C)C3=O)nc21 [Example 2, 1-isopropyl-N-[(3S)-5-methyl-4-oxo-2,3-dihydropyrido[3,2-b][1,4]oxazepin-3-yl]pyrazolo[3,4-d]pyrimidine-6-carboxamide]
7 | C[C@H]1Oc2cccnc2N(C)C(=O)[C@H]1NC(=O)c1cc2n(n1)CCO[C@H]2c1ccccc1 [Example 6, (4S)-4-phenyl-N-[(2R,3S)-2,5-dimethyl-4-oxo-2,3-dihydropyrido[3,2-b][1,4]oxazepin-3-yl]-6,7-dihydro-4H-pyrazolo[5,1-c][1,4]oxazine-2-carboxamide]
4.4 | CN1C(=O)[C@@H](NC(=O)c2cc3n(n2)[C@H](c2ccccc2)C[C@@H]3F)COc2ccccc21 (single isomer, unassigned) [Example 11]
